Eight compounds from US20160257697A1, “THIOPHENE-SUBSTITUTED TETRACYCLIC COMPOUNDS AND METHODS OFUSE THEREOF FOR THE TREATMENT OF VIRAL DISEASES” (priority 2013, published 2016) can be followed below.

Like-named read-outs stand apart in the source and are kept apart here.

Test in all cases: microbe, parasite or virus in culture
Common to all, as to assay type: cell-based, Hepatitis C virus (HCV)

For one experiment, the system named is HCV replicon 1AQ30D. To be noted: Replicon Assay B.
Another experiment deals with HCV replicon 1B. The following applies: Replicon Assay B.
A further experiment concerns HCV replicon 1AY93H. The following applies: Replicon Assay A. The procedure, abridged:
(§1)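 Three-day treatment of replicon cells (2000/well, 5% FBS, 0.5% DMSO), followed by TaqMan RT-PCR of replicon RNA with cyclophilin as internal control.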

A further experiment relates to HCV replicon 1A. To be noted: Replicon Assay A. The method in brief:
as §1

Another experiment relates to HCV replicon 2B. The following applies: Replicon Assay A. The procedure, abridged: as §1
Setting [1] is: read-out: 1A Y93H IC50, replicon 1AY93H.
The mark [2] stands for this setting: Hepatitis C virus, read-out: 1A Q30D IC50, HCV replicon 1A Q30D.
The mark [3] stands for this setting: Hepatitis C virus, HCV replicon 1B.
Setting [4] is: Hepatitis C virus, HCV replicon 1A.
The mark [5] stands for this setting: Hepatitis C virus, read-out: 1A Q30D IC50 (nM), replicon 1AQ30D.
[6] abbreviates: read-out: 1A Y93H IC50, HCV replicon 1A Y93H.
Where [7] appears, read: read-out: 2B IC50, HCV replicon 2B.

Turning to `COC(=O)NC(C(=O)N1CCC[C@H]1c1ncc(-c2ccc3c(c2)cc2n3C(c3cc4ccccc4s3)Oc3cc(-c4cnc([C@@H]5CCCN5C(=O)[C@@H](NC(=O)OC)C5CCOCC5)[nH]4)cc(F)c3-2)[nH]1)C(C)(C)F` (single isomer, unassigned) [Compound 184], the IC50 stood at 0.21 nM in the experiment with HCV replicon 1AQ30D (read-out: 1A Q30D IC50, replicon 1AQ30D); 2 pM in the experiment with HCV replicon 1B (replicon 1B); 0.16 nM in the experiment on HCV replicon 1AY93H (setting [1]); 2 pM in the experiment with HCV replicon 1A (replicon 1A); 0.076 nM with HCV replicon 2B (read-out: 2B IC50, replicon 2B).
As for `COC(=O)NC(C(=O)N1CCC[C@H]1c1ncc(-c2ccc3c(c2)cc2n3C(c3ccc(C(F)(F)F)s3)Oc3cc(-c4cnc([C@@H]5CCCN5C(=O)[C@@H](NC(=O)OC)C(C)C)[nH]4)cc(F)c3-2)[nH]1)C1C[C@@H](C)O[C@@H](C)C1` (stereo partly shown) [Compound 650], the IC50 was 0.0458 nM in the experiment on HCV replicon 1AQ30D (setting [2]); 1.4 pM in the experiment on HCV replicon 1B (setting [3]); 0.0057 nM with HCV replicon 1AY93H (Hepatitis C virus, read-out: 1A Y93H IC50, HCV replicon 1A Y93H); 2 pM in the experiment with HCV replicon 1A (setting [4]); 0.005 nM in the experiment on HCV replicon 2B (Hepatitis C virus, read-out: 2B IC50, HCV replicon 2B).
`COC(=O)N[C@H](C(=O)N1CCC[C@@H]1c1ncc(-c2cc(F)c3c(c2)OC(c2ccc(C(C)C)s2)n2c-3cc3cc(-c4c[nH]c([C@@H]5C[C@@H]6C[C@@H]6N5C(=O)[C@H](NC(=O)OC)C5C[C@@H](C)O[C@@H](C)C5)n4)ccc32)[nH]1)C(C)C` (stereo partly shown) [Compound 284]: the IC50 in the experiment on HCV replicon 1AQ30D (setting [5]) came to 0.021 nM; with HCV replicon 1B (Hepatitis C virus, replicon 1B) it was 2.1 pM; with HCV replicon 1AY93H (Hepatitis C virus, read-out: 1A Y93H IC50 (nM), replicon 1AY93H), 0.002 nM; in the experiment with HCV replicon 1A (Hepatitis C virus, replicon 1A) it was 1.8 pM; in the experiment on HCV replicon 2B (Hepatitis C virus, read-out: 2B IC50 (nM), replicon 2B), 0.024 nM.
Take `COC(=O)N[C@H](C(=O)N1CCC[C@H]1c1ncc(-c2cc(F)c3c(c2)OC(c2cc4c(s2)CCC4)n2c-3cc3cc(-c4cnc([C@@H]5CCCN5C(=O)[C@@H](NC(=O)OC)C5CCOCC5)[nH]4)ccc32)[nH]1)C(C)C` (single isomer, unassigned) [Compound 620]: the IC50 came to 0.114 nM in the experiment on HCV replicon 1AQ30D (setting [2]); 1.9 pM with HCV replicon 1B (setting [3]); 0.0059 nM with HCV replicon 1AY93H (setting [6]); 2.3 pM in the experiment with HCV replicon 1A (setting [4]); 0.0102 nM in the experiment with HCV replicon 2B (setting [7]).
Consider `COC(=O)N[C@H](C(=O)N1CCC[C@H]1c1ncc(-c2cc(F)c3c(c2)OC(c2cc4c(s2)CCC(C)(C)O4)n2c-3cc3cc(-c4cnc([C@@H]5CCCN5C(=O)[C@@H](NC(=O)OC)C(C)C)[nH]4)ccc32)[nH]1)C(C)C` (single isomer, unassigned) [Compound 397], for which the 50% inhibitory concentration (IC50) in the experiment on HCV replicon 1AQ30D (setting [5]) came out at 0.0765 nM; in the experiment on HCV replicon 1B (Hepatitis C virus, replicon 1B), 3 pM; in the experiment with HCV replicon 1AY93H (setting [1]), 0.004 nM; in the experiment on HCV replicon 1A (Hepatitis C virus, replicon 1A), 3 pM; with HCV replicon 2B (read-out: 2B IC50, replicon 2B) it was 0.0164 nM.
In the case of `COC(=O)NC(C(=O)N1[C@@H]2C[C@@H]2C[C@H]1c1ncc(-c2ccc3c(c2)cc2n3C(c3ccc(C(F)F)s3)Oc3cc(-c4cnc([C@@H]5CCCN5C(=O)[C@@H](NC(=O)OC)C(C)C)[nH]4)cc(F)c3-2)[nH]1)C1CCOC(C)(C)C1` (single isomer, unassigned) [Compound 415], the concentration for half-maximal inhibition (IC50) in the experiment with HCV replicon 1AQ30D (setting [2]) is 0.0424 nM; in the experiment on HCV replicon 1B (setting [3]), 2.4 pM; in the experiment with HCV replicon 1AY93H (setting [6]), 0.0042 nM; with HCV replicon 1A (HCV replicon 1A) it was 2.3 pM; in the experiment with HCV replicon 2B (setting [7]) it was 0.0126 nM.
On to `COC(=O)N[C@H](C(=O)N1CCC[C@H]1c1ncc(-c2cc(C)c3c(c2)OC(c2ccc(C4CC4)s2)n2c-3cc3cc(-c4cnc([C@@H]5C[C@H]6C[C@H]6N5C(=O)[C@@H](NC(=O)OC)C(C)C)[nH]4)ccc32)[nH]1)C(C)C` (single isomer, unassigned) [Compound 756], for which the concentration for half-maximal inhibition (IC50) in the experiment on HCV replicon 1AQ30D (read-out: 1A Q30D IC50, HCV replicon 1A Q30D) was 10.2 nM; in the experiment with HCV replicon 1B (HCV replicon 1B), 2.2 pM; in the experiment on HCV replicon 1AY93H (setting [6]), 0.64 nM; in the experiment with HCV replicon 1A (HCV replicon 1A), 3.6 pM; in the experiment on HCV replicon 2B (setting [7]), 0.6 nM.
With `COC(=O)N[C@H](C(=O)N1CCC[C@H]1c1ncc(-c2cc(F)c3c(c2)OC(c2ccc(C4CC4)s2)n2c-3cc3cc(-c4cnc([C@@H]5CCCN5C(=O)[C@@H](NC(=O)OC)C(C)C)[nH]4)ccc32)[nH]1)C(C)C` (single isomer, unassigned) [Compound 6], the IC50 amounted to 0.32 nM with HCV replicon 1AQ30D (replicon 1AQ30D, read-out: 1A Q30D IC50); 1.5 pM with HCV replicon 1B (replicon 1B); 0.011 nM with HCV replicon 1AY93H (replicon 1AY93H, read-out: 1A Y93H IC50); 1.9 pM with HCV replicon 1A (replicon 1A); 0.028 nM in the experiment with HCV replicon 2B (replicon 2B, read-out: 2B IC50).
